{"source": "paper PMC9232501", "about": "“Results of the phase I CCTG IND.231 trial of CX-5461 in patients with advanced solid tumors enriched for DNA-repair deficiencies” (Nature Communications, 2022)", "key": {"[1]": {"tested_on": "HCT116 cells", "experiment": "ROS measurement with H2DCFDA before/after UVA 125 mJ/cm^2", "format": "cell-based, Human", "conditions": "CX-5461 0.1 μM or PDS 10 μM for 1 h", "procedure": "ROS measurement with H2DCFDA: HCT116 cells were treated with vehicle, CX-5461 0.1 μM or PDS 10 μM for 1 h, then were added with H2DCFDA for 45 min before initial fluorescence measurement. Cells were then irradiated with UVA 125 mJ/cm^2, and immediately sent for a second fluorescent measurement. The ratio of the second and the first fluorescent measurement was calculated as the level of ROS induced by UVA. Assays were performed in the 1-hour time frame within which UV damage manifests, in contrast to G4 ligand-induced damage which takes 3–4 h to be measurable.\n(§1) Supplementary Figures and Tables\n(§2) Supplementary Figure 1. UVA radiation increased double-stranded DNA breaks and ROS.\n(§3) Representative pictures of g -H2AX immunofluorescent staining with and without UVA radiation, for […]\ncondition, quantified in (b) Quantile and mean intensity of g-H2AX level per cell, vertical axis. UV and drug factor conditions, horizontal axis. Experiments were repeated two times (biological duplicates) and similar results were obtained. Number of cells as in Figure 5 g (c) The ratio of ROS level measured after UVA irradiation versus before UVA irradiation was calculated. Biological triplicates. The horizontal bar = median. ***P<0.0001, Welch’s t-test; n=8\n(1 picture or pasted object on this page, not shown here)"}, "[2]": {"tested_on": "BRCA2 and BRCA1-deficient tumor models", "conditions": "cited from earlier work"}, "[3]": {"tested_on": "U2OS cells", "experiment": "CPD (cyclobutane pyrimidine dimer) immunofluorescence after UVA 125 mJ/cm^2", "format": "cell-based, Human", "conditions": "1 h compound exposure", "procedure": "(§4) Fig. 5 Comparison of G4 ligand photosensitization. […] Vertical axis, fractional survival, horizontal axis log10 drug concentration (M) (f) Representative images of CPD immunofluorescent staining under UV and drug treatment conditions for U2OS cells, quantified from biological duplicates in (g) (h) Scale bar = 100um. U2OS cells were treated with drug or vehicle control, then immediately irradiated with UVA 125 mJ/cm^2; and fixed 1 h later for immunofluorescence staining with CPD antibody. g Distribution of mean intensity of CPD level per cell (total n = in labels), with two biological repeats per condition. Vertical axis, mean CPD intensity per cell, horizontal axis, conditions (h) WT or KO XPA HAP1 cells assayed for cytotoxicity. Vertical axis, fractional survival (WST-1 assay). The horizontal axis, log10 drug concentration (M). Error bars = standard deviation of the mean. Three biological repeats per condition.\nHuman epidermal keratinocytes (HEKa) cells were sourced from Thermo Fisher Scientific, and were grown in EpiLife™ Medium with HKGS. HAP WT and XPA knockout cell lines (Horizon Discovery) were cultured in IMDM, 10% FCS. Human HCT116 cells, U2OS cells (ATCC) were grown in McCoy’s 5 A medium with 10% FBS and L-glutamine. All cell lines are mycoplasma free and have been authenticated by STR or SNP profiling. […]"}, "[4]": {"tested_on": "HCT116 cells", "experiment": "HCT116 cytotoxicity (WST-1 assay) with and without UVA radiation", "format": "cell-based, Human", "conditions": "for WST-1 raw signal (Figure 5c): replicates", "procedure": "as §4\n(§5) Human epidermal keratinocytes (HEKa) cells were sourced from Thermo Fisher Scientific, and were grown in EpiLife™ Medium with HKGS. HAP WT and XPA knockout cell lines (Horizon Discovery) were cultured in IMDM, 10% FCS. Human HCT116 cells, U2OS cells (ATCC) were grown in McCoy’s 5 A medium with 10% FBS and L-glutamine. All cell lines are mycoplasma free and have been authenticated by STR or SNP profiling. CX-5461 was provided by Senhwa Biosciences, Inc. PDS is from Sigma-Aldrich, BRACO-19 from Alfa Chemistry, PhENDC3 is from Sigma-Aldrich, γ -H2AX antibody from Abcam (1:1000 for IF) and CPD antibody (1:1500) from Cosmo Bio Ltd. (Catalog number: CAC-NM-DAD-001). The WST-1 assay was performed as previously described, γ H2AX foci staining was performed as previously described. Immunofluorescence staining of CPD was performed according to the protocol from the manufacturer (Cosmo Bio Ltd)."}, "[5]": {"tested_on": "γ-H2AX (double-stranded DNA breaks)", "experiment": "γ-H2AX immunofluorescent staining with and without UVA radiation", "format": "cell-based", "conditions": "CX5461 10^-8M, 5x10-8M; PDS 20 x 10^-6M", "procedure": "as §5, §1, §2, §3\ncondition, quantified in (b) Quantile and mean intensity of g-H2AX level per cell, vertical axis. UV and drug factor conditions, horizontal axis. […] Number of cells as in Figure 5 g (c) The ratio of ROS level measured after UVA irradiation versus before UVA irradiation was calculated. […]"}}, "note": "Where “and” joins values, the source holds several entries; their conditions need not be identical. Equal values may be shown once."}
{"molecule": "NCCOc1cc(C(=O)Nc2cc(OCCN)c3ccccc3n2)nc(C(=O)Nc2cc(OCCN)c3ccccc3n2)c1", "note": "[PDS, pyridostatin]", "values": [{"measurement": "ROS in the presence of UVA (ratio after/before UVA)", "setting": "[1]", "value": "not"}, {"measurement": "synthetic lethality with loss of HR repair", "setting": "[2]", "value": "synthetic lethal"}, {"measurement": "potentiation of CPD formation by UVA", "setting": "[3]", "value": "not"}, {"measurement": "potentiation of UVA-induced cytotoxicity", "setting": "[4]; UV 5 mJ/cm^2 and 125 mJ/cm^2", "value": "not"}, {"measurement": "WST-1 raw signal (Figure 5c)", "setting": "[4]; conc 1.56e-6, 5mJ/cm2 UV", "value": "3.2786 and 3.1337"}, {"measurement": "WST-1 raw signal (Figure 5c)", "setting": "[4]; conc 1.56e-6, 125 mJ/cm2 UV", "value": "2.9405 and 3.1793"}, {"measurement": "WST-1 raw signal (Figure 5c)", "setting": "[4]; conc 1.56e-6, no UV", "value": "3.373 and 3.3554"}, {"measurement": "WST-1 raw signal (Figure 5c)", "setting": "[4]; conc 3.13e-6, 5mJ/cm2 UV", "value": "2.8932 and 3.2752"}, {"measurement": "WST-1 raw signal (Figure 5c)", "setting": "[4]; conc 3.13e-6, 125 mJ/cm2 UV", "value": "3.2783 and 2.5154"}, {"measurement": "WST-1 raw signal (Figure 5c)", "setting": "[4]; conc 3.13e-6, no UV", "value": "3.1639 and 3.0204"}, {"measurement": "WST-1 raw signal (Figure 5c)", "setting": "[4]; conc 6.25e-6, 5mJ/cm2 UV", "value": "3.1968 and 2.1952"}, {"measurement": "WST-1 raw signal (Figure 5c)", "setting": "[4]; conc 6.25e-6, 125 mJ/cm2 UV", "value": "2.1994 and 1.9427"}, {"measurement": "WST-1 raw signal (Figure 5c)", "setting": "[4]; conc 6.25e-6, no UV", "value": "2.8791 and 2.2497"}, {"measurement": "WST-1 raw signal (Figure 5c)", "setting": "[4]; conc 1.25e-5, 5mJ/cm2 UV", "value": "0.8793 and 1.0754"}, {"measurement": "WST-1 raw signal (Figure 5c)", "setting": "[4]; conc 1.25e-5, 125 mJ/cm2 UV", "value": "1.8196 and 1.0192"}, {"measurement": "WST-1 raw signal (Figure 5c)", "setting": "[4]; conc 1.25e-5, no UV", "value": "1.2465 and 0.8301"}, {"measurement": "WST-1 raw signal (Figure 5c)", "setting": "[4]; conc 2.5e-5, 5mJ/cm2 UV", "value": "0.2188 and 0.2466"}, {"measurement": "WST-1 raw signal (Figure 5c)", "setting": "[4]; conc 2.5e-5, 125 mJ/cm2 UV", "value": "0.4428 and 0.3571"}, {"measurement": "WST-1 raw signal (Figure 5c)", "setting": "[4]; conc 2.5e-5, no UV", "value": "0.23 and 0.2464"}, {"measurement": "WST-1 raw signal (Figure 5c)", "setting": "[4]; conc 5e-5, 5mJ/cm2 UV", "value": "0.1582 and 0.148"}, {"measurement": "WST-1 raw signal (Figure 5c)", "setting": "[4]; conc 5e-5, 125 mJ/cm2 UV", "value": "0.1729 and 0.1634"}, {"measurement": "WST-1 raw signal (Figure 5c)", "setting": "[4]; conc 5e-5, no UV", "value": "0.1562 and 0.1551"}, {"measurement": "WST-1 raw signal (Figure 5c)", "setting": "[4]; conc 1.95E-07, 5mJ/cm2 UV", "value": "3.319 and 3.3471"}, {"measurement": "WST-1 raw signal (Figure 5c)", "setting": "[4]; conc 1.95E-07, 125 mJ/cm2 UV", "value": "2.9662 and 3.2767"}, {"measurement": "WST-1 raw signal (Figure 5c)", "setting": "[4]; conc 1.95E-07, no UV", "value": "3.3384 and 3.3351"}, {"measurement": "WST-1 raw signal (Figure 5c)", "setting": "[4]; conc 3.91E-07, 5mJ/cm2 UV", "value": "3.2173 and 2.6279"}, {"measurement": "WST-1 raw signal (Figure 5c)", "setting": "[4]; conc 3.91E-07, 125 mJ/cm2 UV", "value": 3.2982}, {"measurement": "WST-1 raw signal (Figure 5c)", "setting": "[4]; conc 3.91E-07, no UV", "value": "3.3319 and 2.4545"}, {"measurement": "WST-1 raw signal (Figure 5c)", "setting": "[4]; conc 7.81E-07, 5mJ/cm2 UV", "value": "3.0666 and 2.7778"}, {"measurement": "WST-1 raw signal (Figure 5c)", "setting": "[4]; conc 7.81E-07, 125 mJ/cm2 UV", "value": "3.2287 and 3.2519"}, {"measurement": "WST-1 raw signal (Figure 5c)", "setting": "[4]; conc 7.81E-07, no UV", "value": "3.286 and 3.3592"}, {"measurement": "WST-1 raw signal (Figure 5c)", "setting": "[4]; conc 9.77E-08, 5mJ/cm2 UV", "value": "3.3085 and 3.2577"}, {"measurement": "WST-1 raw signal (Figure 5c)", "setting": "[4]; conc 9.77E-08, 125 mJ/cm2 UV", "value": "3.2825 and 3.2983"}, {"measurement": "WST-1 raw signal (Figure 5c)", "setting": "[4]; conc 9.77E-08, no UV", "value": "3.2977 and 3.3288"}, {"measurement": "DNA damage (γ-H2AX) in the presence of UVA", "setting": "[5]", "value": "not"}]}
